Here are results for seven compounds from US9205064B2, “Methods for the diagnosis of oncological disorders using epimetabolic shifters, multidimensional intracellular molecules, or environmental influencers” (Berg LLC, priority 2009, dated 2015).

The structures appear in SMILES notation.

Data set [1] has as its system Melanoma cells. Put plainly: Cell proliferation assay (live cell count) of building block combinations. In kind it is cell-based. As for the experimental part: This set of experiments used a cell proliferation assay to assess the effect of combining different building block molecules on cell proliferation.
The first study examined the effect of combining 4-Hydroxy-Benzoate with Benzoquinone. Cells were incubated for 48 hours, after which a cell count was performed for the live cells. Each test group was compared to the control, and each combination groups were compared to Benzoquinone control. The compounds were statistically analyzed for the addition of Benzoquinone.
Additional studies were performed testing additional molar ratios. For the first test 4-Hydroxybenzoic were tested at concentrations of 500 nM, 1 μM, and 50 μM. These concentrations were tested in combination with 2,3-Dimethoxy-5-methyl-p-benzoquinone (Benzo). The concentration of Benzo tested were 25 μM, 50 μM, and 100 μM. Melanoma cells were grown to 80% confluency and seeded in 6 well plates at a concentration of 40K cells per well. The cells were treated with CoQ10, 4-Hydroxybenzoate, Benzo, and a combination of 4-Hydroxybenzoate/Benzo.
A T-test was performed with p<0.05 as statistically significant.

Data set [2] deals with neonatal fibroblast cells. Put plainly: Cell proliferation assay (coulter counter). In kind it is cell-based. The note with it: HB 500 nM, 5 μM, 25 μM; benzoquinone 25, 50, 100 μM; 24 hours.
Experimental: A cell proliferation assay was also performed on neonatal fibroblast cells. The concentrations of HB tested were 500 nM, 5 μM, and 25 μM. HB was also tested in combination with benzoquinone at a concentrations of 25 μM, 50 μM, and 100 μM. Melanoma cells were seeded at 40 k cells per well and were treated for 24 hours. The cells were trypsinized and quantified using a coulter counter.
Data set [3] relates to Bcl-2. Put plainly: Western blot of Bcl-2 in Skmel-28 cells treated with CoQ10 building block components. In kind it is cell-based. As for the experimental part: (§1) Skmel-28 melanoma cells were cultured in DMEM/F12 supplemented with 5% Fetal Bovine Serum (FBS) and 1× final concentration of Antibiotics. The cells were grown to 85% confluency and treated with building block components for 3, 6, 12 and 24 hours. The cells were then pelleted and a Western blot analysis was performed.
(§2) In the Western Blot Analysis, the cells were pelleted in cold PBS, lysed, and the protein levels were quantified using a BCA protein assay. The whole cell lysate was loaded in a 4% loading 12% running Tris-HCl gel. The proteins were then transferred to a nitrocellulose paper then blocked with a 5% milk Tris-buffered solution for 1 hour. The proteins were then exposed to primary antibodies (Bcl-2 and Caspase-3) overnight. The nitrocellulose paper was then exposed to Pico Chemilluminescent for 5 min and the protein expression was recorded. After exposure, actin was quantified using the same method. Using ImageJ the levels of protein expression were quantified. A t-Test was used to analyze for statistical significance.
A general note: A western blot detects proteins with antibodies after separation by electrophoresis.

Data set [4] relates to Caspase-3. As to the kind of experiment: Western blot of Caspase-3 in Skmel-28 cells treated with CoQ10 building block components. In kind it is cell-based. How it is done: as §1, §2
Data set [5] has as its system HDFa cells. Put plainly: SeaHorse XF analyzer OCR and ECAR. Format: cell-based, human. The text has this:
Environmental influencers (e.g., MIMs or Epi-shifters) may also be identified by changes in cellular energetics. One example of the measurement of cellular energetics are the real-time measures of the consumption of molecular oxygen and/or the change in pH of the media of a cell culture. For example, the ability of a potential epi-shifter to modulate the metabolic state of a cell may be analyzed using, for example, the XF24 Analyzer (Seahorse, Inc.). This technology allows for real time detection of oxygen and pH changes in a monolayer of cells in order to evaluate the bioenergetics of a cell microenvironment. The XF24 Analyzer measures and compares the rates of oxygen consumption (OCR), which is a measure of aerobic metabolism, and extracellular acidification (ECAR), which is a measure of glycolysis, both key indicators of cellular energetics.
(SeaHorse Biosciences Inc, North Billerica, Mass.).
In this experiment, the OCR and extracellular acidification rate (ECAR) in normal cells lines were obtained in the presence and absence of CoQ10 to determine baseline values. It was observed that in its native nutrient environment, the basal OCR rates in normal cells lines are different, and are usually a function of the physiological roles of the cells in the body.
FIGS. 29 and 30 describe the OCR in HDFa and HASMC cells grown in physiologically normal glucose (about 4.6 mM) and high glucose (hyperglycemic) conditions.
Table 53, below, describes the ECAR values (mpH/min) in HDFa cells in the presence or absence of CoQ10 under normoxic and hypoxic conditions at 5.5 mM and 22 mM glucose.

Setting [6] is: 500 nM, 1 μM, 25 μM and 50 μM, all time points.

Turning to `O=C(O)c1ccc(O)cc1` [4-Hydroxybenzoate, 4-hydroxy-benzoate], in data set [1] (48 hours), the “cell number compared to the control” value is “significant decrease in cell number”. In addition, the cell proliferation entry in data set [1] (HB 500 nM, 1 μM, 50 μM, p<0.05) is “significant decrease in cell proliferation”. The “reduction in fibroblast cells” value in data set [2] is “did not show a significant reduction”.
Regarding `CC(=O)SCCNC(=O)CCNC(=O)[C@H](O)C(C)(C)COP(=O)(O)OP(=O)(O)OC[C@H]1O[C@@H](n2cnc3c(N)ncnc32)[C@H](O)[C@@H]1OP(=O)(O)O` [Acetyl-CoA], in data set [3] (setting [6]), the Bcl-2 expression result is “no significant observed reduction”. In data set [4] (setting [6]), the Caspase-3 expression entry was “no significant observed”.
For `N[C@H](Cc1ccc(O)cc1)C(=O)O` [D-Tyrosine], the Caspase-3 expression result in data set [4] (5 μM, 12 hour) was “increase”.
Turning to `N[C@@H](Cc1ccc(O)cc1)C(=O)O` [L-Tyrosine], the Bcl-2 expression entry in data set [3] (500 μM and 5 μM, 24 hours) was “statistically significant decrease”.
Take `C[C@@](O)(CCO)CC(=O)O` [Mevalonic Acid, mevalonic acid]: the Bcl-2 expression entry in data set [3] (setting [6]) is on record as “no significant reduction”. Besides, the Caspase-3 expression entry in data set [4] (setting [6]) was “no significant”.
In the case of `COc1cc(C(O)C(=O)O)ccc1O` (stereo not drawn) [VMA, 3-methoxy-4-hydroxymandelate], in data set [3] (100 nM, 250 nM, 500 nM, 1 μM, 25 μM, 50 μM and 100 μM), the “apoptotic effect (Bcl-2, Caspase-3)” value is “no statistically significant apoptotic effect”.
As to `COC1=C(OC)C(=O)C(C/C=C(\C)CC/C=C(\C)CC/C=C(\C)CC/C=C(\C)CC/C=C(\C)CC/C=C(\C)CC/C=C(\C)CC/C=C(\C)CC/C=C(\C)CCC=C(C)C)=C(C)C1=O` [compound 31510], the ECAR in data set [5] (50 μM, Hypoxia (5.5 mM)) is 5 mpH/min; in data set [5] (50 μM, Hypoxia (22 mM)), 6 mpH/min; in data set [5] (50 μM, Normoxia (5.5 mM)), 6 mpH/min; in data set [5] (50 μM, Normoxia (22 mM)), 5 mpH/min; in data set [5] (100 μM, Hypoxia (5.5 mM)), 5 mpH/min; in data set [5] (100 μM, Hypoxia (22 mM)), 8 mpH/min. For the same compound, the ECAR in data set [5] (100 μM, Normoxia (5.5 mM)) came to 6 mpH/min; in data set [5] (100 μM, Normoxia (22 mM)), 5 mpH/min.
